Data from patent US20120077804A1, “Small Molecule Inhibitors of RNA Silencing” (The Regents of the University of California, priority 2007, published 2012).

Key:
[1] = tested on: RNAi-mediated innate immunity against virus infection in cultured Drosophila cells; assay: Cell-based high throughput screen, GFP expression in R1gfp cells after induction of FHV replication
Description: A cell-based high throughput screening protocol for the identification of chemical inhibitors of the RNAi-mediated innate immunity against virus infection in cultured Drosophila cells has been established. The system is based on Flock house virus (FHV), an animal Nodavirus that contains a bipartite RNA genome. FHV RNA2 encodes the single virion structural protein, whereas FHV RNA1 encodes the viral RNA-dependent RNA polymerase (RdRP) and B2, a viral suppressor of RNAi (VSR) expressed after RNA1 replication from its own mRNA, RNA3. In the absence of RNA2, RNA1 replicates autonomously, accumulates to high levels, and produces abundant RNA3 in Drosophila cells. […] Similarly, green fluorescence is not detectable in wild type Drosophila cells transfected with pR1gfp, which encodes a recombinant RNA1 in which the viral B2 gene is replaced with green fluorescent protein (GFP) gene. A stable Drosophila Schneider 2 cell line has been established, and carries pR1gfp, called line R1gfp. R1gfp cells were seeded in 96-well plates and incubated overnight with chemicals from ChemBridge Diverset Library before FHV replication was induced. Expression of GFP was screened in R1gfp cells two days following the induction of FHV replication (see, Li et al., Proc Natl Acad Sci USA 2004, 101(5), 1350-5).

[2] = tested on: RNAi induced by synthetic double-stranded RNA (dsRNA); assay: Northern blot of Cyclin A mRNA in S2 cells, RNAi induced by synthetic dsRNA (dsCycA); assay type: cell-based, Drosophila; conditions: for Degradation of cyclin A mRNA targeted by dsCycA: dsCycA plus 30 μM compound
Description: FIG. 2 illustrates the northern blot detection of Cyclin A mRNA in S2 cells.
Degradation of cyclin A mRNA occurred in S2 cells transfected with a dsRNA specific to cyclin A (dsCycA) (see, FIG. 2, lanes 1-2), but not in cells treated with a GFP-specific dsRNA (dsGFP) (see, FIG. 2, lane 8). […] Similar inhibition of cyclin A RNAi was also observed in cells co-transfected with a dsRNA targeting mRNA of Drosophila Ago2 (see, FIG. 2, lane 9), which is essential for RNAi in Drosophila.

In the case of `COc1ccc(CN2CCN(S(=O)(=O)c3ccc(C)cc3)CC2)cc1OCc1ccccc1` [Rin2, 1-[3-(benzyloxy)-4-methoxybenzyl]-4-[(4-methylphenyl)sulfony]piperazine], the “Inhibition of RNAi-mediated viral immunity (detection of green fluorescence)” value [1] is reported as “inhibit the RNAi-mediated viral immunity”, the “Inhibition of RNAi induced by synthetic double-stranded RNA (dsRNA)” value [2] is reported as “active inhibitors” and the “Degradation of cyclin A mRNA targeted by dsCycA” value [2] is reported as “partially inhibited”.
`CCN(CC)c1ccc(/C=C2/C(=O)NN(c3ccc(C)c(Cl)c3)C2=O)c(O)c1` [Rin3, 1-(3-chloro-4-methylphenyl)-4-[4-(diethylamino)-2-hydroxybenzylidene]-3,5-pyrazolidinedione] was tested, and the “Inhibition of RNAi-mediated viral immunity (detection of green fluorescence)” value [1] was “inhibit the RNAi-mediated viral immunity”, the “Inhibition of RNAi induced by synthetic double-stranded RNA (dsRNA)” value [2] was “active inhibitors” and the “Degradation of cyclin A mRNA targeted by dsCycA” value [2] was “partially inhibited”.
